Experimental data as given in PubChem BioAssay (NCI).
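Values below derive from 48-hour exposures of cells grown in 96-well plates, with endpoints linearly interpolated between the two concentrations bracketing the appropriate inhibition level. Here, GI50 denotes the concentration required for 50% inhibition of growth. At the TGI there is no net growth.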

Assays:
Assay in all cases: inhibition of tumour cell growth, NCI panel, 48 h
OVCAR-3 ovarian = tested on: OVCAR-3 ovarian
SF-539 CNS = tested on: SF-539 CNS
SNB-19 CNS = tested on: SNB-19 CNS
RXF 393 renal = tested on: RXF 393 renal
SN12C renal = tested on: SN12C renal
CCRF-CEM leukemia = tested on: CCRF-CEM leukemia
A549 NSCLC = tested on: A549 NSCLC
HCT-116 colon = tested on: HCT-116 colon
OVCAR-4 ovarian = tested on: OVCAR-4 ovarian
A498 renal = tested on: A498 renal
M14 melanoma = tested on: M14 melanoma
DU-145 prostate = tested on: DU-145 prostate
NCI/ADR-RES ovarian = tested on: NCI/ADR-RES ovarian

| SMILES | TGI (OVCAR-3 ovarian) | TGI (SF-539 CNS) | TGI (SNB-19 CNS) | TGI (RXF 393 renal) | TGI (SN12C renal) | TGI (CCRF-CEM leukemia) | TGI (A549 NSCLC) | TGI (HCT-116 colon) | TGI (OVCAR-4 ovarian) | TGI (A498 renal) | TGI (M14 melanoma) | TGI (DU-145 prostate) | TGI (NCI/ADR-RES ovarian) | GI50 (SF-539 CNS) | GI50 (DU-145 prostate) | GI50 (SN12C renal) | GI50 (CCRF-CEM leukemia) | GI50 (OVCAR-4 ovarian) | GI50 (A498 renal) |
| --- | --- | --- | --- | --- | --- | --- | --- | --- | --- | --- | --- | --- | --- | --- | --- | --- | --- | --- | --- |
| COc1ccc2c(c1)c(Cc1c(C)n(C)c3ccc(OC)cc13)c(C)n2C | > 100 µM | > 100 µM | > 100 µM | > 100 µM | > 100 µM | > 100 µM | > 100 µM | > 100 µM | > 100 µM | > 100 µM | > 100 µM | – | – | – | – | – | – | – | – |
| CSC1=N/C(=C\c2cccs2)C(=O)N1CN1CCCCC1 | > 100 µM | – | – | – | > 100 µM | > 100 µM | > 100 µM | > 100 µM | – | > 100 µM | > 100 µM | > 100 µM | > 100 µM | – | – | – | – | – | – |
| C/C(C=O)=C1\C(O)C[C@]1(C)C1CC(C)(C)CC1O (stereo partly specified) | > 100 µM | > 100 µM | > 100 µM | > 100 µM | > 100 µM | > 100 µM | > 100 µM | > 100 µM | 93.9 µM | > 100 µM | > 100 µM | – | – | – | – | – | – | – | – |
| O=C(CCN(CCO)CCO)Nc1ccc2c(c1)C(=O)c1ccc(NC(=O)CCN(CCO)CCO)cc1C2=O | 51.3 µM | 22.3 µM | 86.3 µM | 79.4 µM | > 100 µM | 39.5 µM | > 100 µM | 33.2 µM | > 100 µM | 37.9 µM | 38.3 µM | – | – | – | – | – | – | – | – |
| CCOc1ccc(NCC(=O)N2CC(=O)Nc3ccccc32)cc1 | > 100 µM | > 100 µM | > 100 µM | > 100 µM | > 100 µM | > 100 µM | > 100 µM | > 100 µM | > 100 µM | – | > 100 µM | – | – | – | – | – | – | – | – |
| COc1ccc(NS(=O)CCc2ccccc2)cc1 (stereo unspecified) | > 100 µM | > 100 µM | > 100 µM | > 100 µM | > 100 µM | > 100 µM | > 100 µM | > 100 µM | – | – | > 100 µM | > 100 µM | > 100 µM | – | – | – | – | – | – |
| CCn1c(=O)c2c(=O)[nH][nH]c2c2ccccc21 | > 100 µM | > 100 µM | > 100 µM | – | > 100 µM | > 100 µM | > 100 µM | > 100 µM | > 100 µM | > 100 µM | – | > 100 µM | > 100 µM | – | – | – | – | – | – |
| Clc1cc(Cl)cc(N2N=C(c3cccc(Nc4ccncc4)c3)CC2c2ccccc2)c1 (stereo unspecified) | – | 3.2 µM | – | – | 3.12 µM | > 100 µM | – | – | 3.87 µM | 4.42 µM | – | 6.51 µM | – | 1.72 µM | 2.54 µM | 1.66 µM | 2.92 µM | 1.86 µM | 1.81 µM |
| CC(C#N)Nc1ccc(Oc2ccc(C(C)(C)c3ccc(Oc4ccc(NC(C)C#N)cc4)cc3)cc2)cc1 (stereo unspecified) | > 100 µM | > 100 µM | > 100 µM | > 100 µM | > 100 µM | – | > 100 µM | > 100 µM | > 100 µM | > 100 µM | > 100 µM | – | > 100 µM | – | – | – | – | – | – |
| CC1CN=C(NCc2ccccc2)S1 (stereo unspecified) | > 100 µM | > 100 µM | > 100 µM | > 100 µM | > 100 µM | > 100 µM | – | > 100 µM | – | > 100 µM | > 100 µM | > 100 µM | – | – | – | – | – | – | – |
| CN(C)c1ccc(C2CC(=O)CC(c3ccc(N(C)C)cc3)C23C(=O)NC(=O)NC3=O)cc1 (stereo unspecified) | > 25 µM | > 25 µM | > 25 µM | > 25 µM | > 25 µM | > 25 µM | – | > 25 µM | > 25 µM | – | > 25 µM | > 25 µM | > 25 µM | – | – | – | – | – | – |
| CC(SC1=CC(=O)c2c(Cl)ccc(O)c2C1=O)C(=O)O (stereo unspecified) | – | 32.8 µM | – | – | 30.9 µM | > 100 µM | 48.1 µM | 34.4 µM | – | > 100 µM | – | – | – | – | – | – | – | – | – |
| c1ccc(C2=NN(c3ccccc3)C3(S2)SC(c2ccccc2)(c2ccccc2)c2ccccc23)cc1 (stereo unspecified) | > 100 µM | > 100 µM | > 100 µM | – | > 100 µM | > 100 µM | > 100 µM | > 100 µM | > 100 µM | > 100 µM | > 100 µM | – | – | – | – | – | – | – | – |
| CC(=O)Nc1ccc(-c2nnc(SCC(=O)Nc3ccccc3Cl)o2)cc1 | > 100 µM | > 100 µM | > 100 µM | > 100 µM | > 100 µM | > 100 µM | > 100 µM | > 100 µM | > 100 µM | > 100 µM | > 100 µM | – | – | – | – | – | – | – | – |
| CCCOC(=O)c1cc(C(=CCC[C@H]2CC[C@@]3(C)[C@@H](CC[C@@H]4[C@@H]3CC[C@]3(C)[C@@H](C(C)CCCC(C)C)CC[C@@H]43)C2)c2cc(Cl)c(O)c(C(=O)OCCC)c2)cc(Cl)c1O (stereo partly specified) | > 50 µM | – | > 50 µM | – | > 50 µM | > 50 µM | – | > 50 µM | > 50 µM | > 50 µM | – | > 50 µM | > 50 µM | – | – | – | – | – | – |
| Cc1nc2ccccc2nc1NS(=O)(=O)c1ccc(N)cc1 | > 100 µM | > 100 µM | > 100 µM | > 100 µM | > 100 µM | > 100 µM | > 100 µM | – | > 100 µM | > 100 µM | > 100 µM | – | – | – | – | – | – | – | – |
| Cc1ccc(S(=O)(=O)N/N=C2\C(=O)C3CC2C(Cl)C3Cl)cc1 (stereo unspecified) | > 100 µM | – | > 100 µM | – | > 100 µM | > 100 µM | > 100 µM | > 100 µM | > 100 µM | > 100 µM | > 100 µM | – | – | – | – | – | – | – | – |
| NC(=S)N/N=C/c1cc(CN2CCOCC2)c(N)cn1 | > 100 µM | 84.2 µM | > 100 µM | > 100 µM | > 100 µM | > 100 µM | – | > 100 µM | – | > 100 µM | 50.9 µM | > 100 µM | 94.3 µM | – | – | – | – | – | – |
| COc1ccc2oc(=N)c(C(N)=S)cc2c1 | – | 51.7 µM | > 100 µM | 32.8 µM | 82.8 µM | > 100 µM | > 100 µM | 45.7 µM | > 100 µM | – | > 100 µM | > 100 µM | 37.1 µM | – | – | – | – | – | – |
| O=S(=O)(CC1=NC2C=CC=CC2N=C1)NCc1ccccc1 (stereo unspecified) | > 100 µM | > 100 µM | > 100 µM | > 100 µM | > 100 µM | > 100 µM | > 100 µM | > 100 µM | > 100 µM | > 100 µM | > 100 µM | – | – | – | – | – | – | – | – |
